Results published in patent publication US20220313698A1, “MODULATORS OF CYSTIC FIBROSIS TRANSMEMBRANE CONDUCTANCE REGULATOR” (Vertex Pharmaceuticals Incorporated, priority 2019, published 2022).

Target: CFTR-mediated chloride transport (Homo sapiens, UniProt P13569)
Assay: Corrector Assay A - membrane potential dye assay (enteroid cells)
Details: for Corrector Assay A % activity: % of chloride transport of triple combination control (1 μM (14S)-dispiro macrocycle + 3 μM tezacaftor + 300 nM ivacaftor); for EC50: read-out: Corrector Assay A EC50, human intestinal enteroid cells, 18-24 h incubation, acute 10 μM forskolin + 300 nM ivacaftor

Compound | Corrector Assay A % activity | EC50
CC(C)(C)c1ccc2c(n1)N1C[C@@H](CC[C@@H](c3cc(C4=CCOCC4)ccn3)Nc3cccc(n3)S(=O)(=O)NC2=O)CC1(C)C (single isomer, unassigned) [Compound 126] | +++ (+++ is >60%) | < 1000 nM
CC(C)(C)c1ccc2c(n1)N1C[C@@H](CCC(c3cc(Cl)ccn3)Nc3cccc(n3)S(=O)(=O)NC2=O)CC1(C)C (single isomer, unassigned) [Compound 127] | +++ (+++ is >60%) | < 1000 nM
CC(C)(C)c1ccc2c(n1)N1C[C@@H](CCC(c3cc(Cl)ccn3)Nc3cccc(n3)S(=O)(=O)NC2=O)CC1(C)C (single isomer, unassigned) [Compound 128] | +++ (+++ is >60%) | < 1000 nM
CC(C)(C)c1ccc2c(n1)N1C[C@@H](CCC(c3cc(C#N)ccn3)Nc3cccc(n3)S(=O)(=O)NC2=O)CC1(C)C (single isomer, unassigned) [Compound 143] | ++ (++ is 30-60%) | < 1000 nM
CC(C)(C)c1ccc2c(n1)N1C[C@@H](CCC(c3cc(C#N)ccn3)Nc3cccc(n3)S(=O)(=O)NC2=O)CC1(C)C (single isomer, unassigned) [Compound 144] | +++ (+++ is >60%) | < 1000 nM
CC(C)(C)c1ccc2c(n1)N1C[C@@H](CCC(c3ccc(CCC#N)cn3)Nc3cccc(n3)S(=O)(=O)NC2=O)CC1(C)C (single isomer, unassigned) [Compound 145] | ++ (++ is 30-60%) | < 1000 nM
CC(C)(C)c1ccc2c(n1)N1C[C@@H](CCC(c3ccc(C4CCOCC4)cn3)Nc3cccc(n3)S(=O)(=O)NC2=O)CC1(C)C (single isomer, unassigned) [Compound 155] | +++ (+++ is >60%) | < 1000 nM
CC(C)(C)c1ccc2c(n1)N1C[C@@H](CCC(c3ccc(Br)cn3)Nc3cccc(n3)S(=O)(=O)NC2=O)CC1(C)C (single isomer, unassigned) [Compound 171] | ++ (++ is 30-60%) | < 1000 nM
CC(C)(C)c1ccc2c(n1)N1C[C@@H](CCC(c3ccc(Br)cn3)Nc3cccc(n3)S(=O)(=O)NC2=O)CC1(C)C (single isomer, unassigned) [Compound 172] | +++ (+++ is >60%) | < 1000 nM
CC(C)(C)c1cccc(C2CC[C@@H]3CN(c4nc(C(C)(C)C)ccc4C(=O)NS(=O)(=O)c4cccc(n4)N2)C(C)(C)C3)n1 (single isomer, unassigned) [Compound 178] | + (+ is <30%) | < 1000 nM
CC(C)(C)c1cccc(C2CC[C@@H]3CN(c4nc(C(C)(C)C)ccc4C(=O)NS(=O)(=O)c4cccc(n4)N2)C(C)(C)C3)n1 (single isomer, unassigned) [Compound 179] | ++ (++ is 30-60%) | < 1000 nM
CC(C)(C)c1ccc(C2CC[C@@H]3CN(c4nc(C(C)(C)C)ccc4C(=O)NS(=O)(=O)c4cccc(n4)N2)C(C)(C)C3)nc1 (single isomer, unassigned) [Compound 186] | +++ (+++ is >60%) | < 1000 nM
CC(C)(C)c1ccc(C2CC[C@@H]3CN(c4nc(C(C)(C)C)ccc4C(=O)NS(=O)(=O)c4cccc(n4)N2)C(C)(C)C3)nc1 (single isomer, unassigned) [Compound 187] | ++ (++ is 30-60%) | < 1000 nM
CC(C)(C)c1ccc2c(n1)N1C[C@@H](CCC(c3ccc(CN)cn3)Nc3cccc(n3)S(=O)(=O)NC2=O)CC1(C)C (single isomer, unassigned) [Compound 197] | ++ (++ is 30-60%) | < 1000 nM
CC(C)(C)c1ccc2c(n1)N1C[C@@H](CCC(c3ccc(C#N)cn3)Nc3cccc(n3)S(=O)(=O)NC2=O)CC1(C)C (single isomer, unassigned) [Compound 205] | +++ (+++ is >60%) | < 1000 nM
CC(C)(C)c1ccc2c(n1)N1C[C@@H](CC[C@@H](c3ncccn3)Nc3cccc(n3)S(=O)(=O)NC2=O)CC1(C)C (single isomer, unassigned) [Compound 206] | +++ (+++ is >60%) | 1000 to 3000 nM
CC(C)(C)c1ccc2c(n1)N1C[C@@H](CC[C@@H](c3ncccn3)Nc3cccc(n3)S(=O)(=O)NC2=O)CC1(C)C (single isomer, unassigned) [Compound 207] | +++ (+++ is >60%) | < 1000 nM
CC(C)(C)c1ccc2c(n1)N1C[C@@H](CCC(c3ccc(Cl)cn3)Nc3cccc(n3)S(=O)(=O)NC2=O)CC1(C)C (single isomer, unassigned) [Compound 208] | +++ (+++ is >60%) | < 1000 nM
CC(C)(C)c1ccc2c(n1)N1C[C@@H](CCC(c3ccc(Cl)cn3)Nc3cccc(n3)S(=O)(=O)NC2=O)CC1(C)C (single isomer, unassigned) [Compound 209] | ++ (++ is 30-60%) | < 1000 nM
CC1(C)OCCc2cc3c(nc21)N1C[C@@H](CCC(c2ccccn2)Nc2cccc(n2)S(=O)(=O)NC3=O)CC1(C)C (single isomer, unassigned) [Compound 212] | +++ (+++ is >60%) | < 1000 nM
CC1(C)OCCc2cc3c(nc21)N1C[C@@H](CCC(c2ccccn2)Nc2cccc(n2)S(=O)(=O)NC3=O)CC1(C)C (single isomer, unassigned) [Compound 213] | ++ (++ is 30-60%) | 1000 to 3000 nM
CC(C)(C)c1ccc2c(n1)N1C[C@@H](CC[C@@H](c3ccncn3)Nc3cccc(n3)S(=O)(=O)NC2=O)CC1(C)C (single isomer, unassigned) [Compound 216] | + (+ is <30%) | 
CC(C)(C)c1ccc2c(n1)N1C[C@@H](CC[C@@H](c3ccncn3)Nc3cccc(n3)S(=O)(=O)NC2=O)CC1(C)C (single isomer, unassigned) [Compound 217] | ++ (++ is 30-60%) | < 1000 nM
CC(C)(C)c1ccc2c(n1)N1C[C@@H](CC[C@@H](C3CCN(c4ncccn4)CC3)Nc3cccc(n3)S(=O)(=O)NC2=O)CC1(C)C (single isomer, unassigned) [Compound 219] | ++ (++ is 30-60%) | < 1000 nM
COCCN1CCC2(CC1)CC(NC(=O)C1CC[C@@H]3CN(c4nc(C(C)(C)C)ccc4C(=O)NS(=O)(=O)c4cccc(n4)N1)C(C)(C)C3)C2 (single isomer, unassigned) [Compound 220] | +++ (+++ is >60%) | 1000 to 3000 nM
CC(C)(C)c1ccc2c(n1)N1C[C@@H](CCC(C(=O)NC3CC4(CCNCC4)C3)Nc3cccc(n3)S(=O)(=O)NC2=O)CC1(C)C (single isomer, unassigned) [Compound 222] | ++ (++ is 30-60%) | > 3000 nM
COC(=O)C1CC[C@@H]2CN(c3nc(C(C)(C)C)ccc3C(=O)NS(=O)(=O)c3cccc(n3)N1)C(C)(C)C2 (single isomer, unassigned) [Compound 224] | +++ (+++ is >60%) | < 1000 nM
COC(=O)C1CC[C@@H]2CN(c3nc(C(C)(C)C)ccc3C(=O)NS(=O)(=O)c3cccc(n3)N1)C(C)(C)C2 (single isomer, unassigned) [Compound 225] | ++ (++ is 30-60%) | < 1000 nM
